The values that follow are results of earlier work, collected in article PMC9811530 (Experimental and Clinical Endocrinology & Diabetes, 2022).

Each structure is given as a SMILES string. Where two headings read alike, the source gives them in different places.

One data set has as its target 11beta-HSD1 in the liver (Homo sapiens, UniProt P28845). The conditions noted are these: cited from earlier work.
The next data set concerns 11beta-HSD1 in AT. The conditions noted are these: single dose, 24 h after dosing; cited from earlier work.

Chain of 11beta-HSD1 in the liver (P28845 whole entry): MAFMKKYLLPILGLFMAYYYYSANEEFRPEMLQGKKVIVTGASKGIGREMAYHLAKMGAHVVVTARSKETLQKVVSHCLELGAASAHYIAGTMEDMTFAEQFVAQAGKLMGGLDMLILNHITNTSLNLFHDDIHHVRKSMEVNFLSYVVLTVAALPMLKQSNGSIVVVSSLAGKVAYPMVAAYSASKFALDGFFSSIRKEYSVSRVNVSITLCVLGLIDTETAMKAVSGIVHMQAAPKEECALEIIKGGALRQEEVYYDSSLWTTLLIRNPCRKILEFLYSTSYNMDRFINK

Consider `N#Cc1ccc(-c2ccc(S(=O)(=O)Nc3cccc(N)n3)cc2)cc1` [PF-915275], for which the “maximum decrease of the (aTHF+THF)/THE ratio” value at 11beta-HSD1 in the liver (after 14 days of treatment) is listed as 26%.

For the compound `CC(C)[C@]1(C)SC(=N[C@H]2C[C@@H]3CC[C@H]2C3)NC1=O` [AMG 221], the “11beta-HSD1 inhibition in AT” value in the data set with 11beta-HSD1 in AT is on record as over 90%.

`CCCSc1nc(N2CCC[C@@H](CC(=O)O)C2)ccc1C(=O)NC1CCCCC1` [AZD4017]: the “maximum decrease of the (aTHF+THF)/THE ratio” value at 11beta-HSD1 in the liver (after 9 days) is given as 92%.

For the compound `C[C@@H](c1ccc(-c2ccn(C)c(=O)c2)cc1)N1CC[C@](CC(C)(C)O)(c2ccccc2)OC1=O` [BI 135585], the “inhibition of 11beta-HSD1 in AT” value in the data set with 11beta-HSD1 in AT is 90%.
